pIC50: −log10 of the molar value.
Target: Mitogen-activated protein kinase 14 (Homo sapiens, UniProt Q16539)
Assay: Inhibition of p38alpha MAPK after 40 mins by scintillation counting

Sequence of Mitogen-activated protein kinase 14 (Q16539 whole entry): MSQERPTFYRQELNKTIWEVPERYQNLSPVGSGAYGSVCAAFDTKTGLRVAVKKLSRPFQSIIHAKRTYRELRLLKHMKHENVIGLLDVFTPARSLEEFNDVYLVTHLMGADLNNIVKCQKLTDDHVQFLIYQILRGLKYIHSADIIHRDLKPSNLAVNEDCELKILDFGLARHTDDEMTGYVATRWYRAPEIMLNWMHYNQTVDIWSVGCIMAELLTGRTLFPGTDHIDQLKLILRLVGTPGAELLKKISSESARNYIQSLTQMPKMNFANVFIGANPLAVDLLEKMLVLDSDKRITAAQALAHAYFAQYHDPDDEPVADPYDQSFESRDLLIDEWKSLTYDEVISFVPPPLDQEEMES

| Structure (SMILES) | pIC50 |
| --- | --- |
| O=c1c(-c2ccc(F)cc2)c(-c2ccnc(Cl)c2)oc2ccccc12 | 5.86 |
| O=c1c(-c2ccc(F)cc2)c(-c2ccnc(NC3CCOCC3)c2)oc2ccccc12 | 7.35 |
| CCCCNc1cc(-c2oc3ccccc3c(=O)c2-c2ccc(F)cc2)ccn1 | 7.68 |
| O=c1c(-c2ccc(F)cc2)c(-c2ccnc(NCc3ccccc3)c2)oc2ccccc12 | 7.46 |
| O=c1c(-c2ccc(F)cc2)c(-c2ccncc2)oc2ccccc12 | 6.09 |

The remaining compounds from weak to strong by pIC50, led by results:

| pIC50 | Structure (SMILES) |
| --- | --- |
| 6.12 | CN(C)CCCNc1cc(-c2oc3ccccc3c(=O)c2-c2ccc(F)cc2)ccn1 |
| 7.41 | COCCCNc1cc(-c2oc3ccccc3c(=O)c2-c2ccc(F)cc2)ccn1 |

Source: ChEMBL document CHEMBL2040781, “Design, synthesis, and biological evaluation of chromone-based p38 MAP kinase inhibitors” (J Med Chem, 2011)
